According to patent publication US10918610B2, “Compounds and methods of promoting myelination” (Case Western Reserve University, priority 2017, dated 2021):

Key:
EpiSC-derived OPCs = assay: Oligodendrocyte formation and myelin sheaths on electrospun microfibers; assay type: cell-based, mouse; conditions: 100 nM, versus untreated OPCs; microscopic images
Description: A 12-well plate containing Mimetex aligned scaffold (microfiber plate, AMSBIO, AMS.TECL-006-1X, Electrospun poly-L-lactide Scaffold, […] fibre diameter cell crown inserts) was prepared as previously described. Briefly, inserts were sterilized with 70% ethanol and washed with PBS before being coated with polyornithine and laminin. After laminin coating, 100,000 cells/mL of EpiSC-derived OPCs were plated in differentiation medium. After 24 h the media was replaced with fresh media containing small molecule treatments. […] Plates were fixed with 4% PFA, permeabilized with 0.1% Triton X-100, and blocked with 10% donkey serum (v/v) in PBS for 60 min. Plates were stained for MBP (Abcam, ab7349; 1:100) and DAPI staining (Sigma; 5 μg/ml). After staining, the inserts were moved into new 12-well plate and covered with 2 mL of PBS before imaging in Operetta high content Imaging and analysis system. Plates were imaged on the Operetta High Content Imaging and Analysis system (PerkinElmer) and a set of 8 fields captured from each well resulting in an average of 45,000 cells being scored per well. Analysis (PerkinElmer Harmony and Columbus software) identified intact nuclei stained by DAPI and calculated the MBP signal intensity per cell per well. Microfiber insert tracking images were taken using a Leica DMi8 with a 20× Dry/NA 0.40 objective. […]

human EBP = molecular target: T1, human EBP (Homo sapiens, UniProt Q15125); assay: Zymostenol level in human cortical spheroids (on-target EBP inhibition); assay type: cell-based; conditions: 100 nM, versus DMSO
T1 construct: endogenous in cells; host or cells: human cortical spheroids derived from pluripotent stem cells
T1 sequence (Q15125 whole entry): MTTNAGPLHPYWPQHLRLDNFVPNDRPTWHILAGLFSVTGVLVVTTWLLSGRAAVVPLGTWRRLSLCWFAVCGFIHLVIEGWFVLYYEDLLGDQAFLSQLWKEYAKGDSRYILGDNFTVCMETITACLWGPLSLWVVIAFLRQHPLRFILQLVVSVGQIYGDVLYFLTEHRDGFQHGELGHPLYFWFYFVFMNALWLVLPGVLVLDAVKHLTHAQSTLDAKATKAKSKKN

zymostenol in human cortical spheroid cells (FIG. 6) (human EBP): accumulation of EBP substrate zymostenol
Structure (SMILES): CCN(C/C=C\c1ccc(C2CCCCC2)c(Cl)c1)C1CCCCC1 [Cis-N-cyclohexyl-N-ethyl-3-(3-chloro-4-cyclohexylphenyl)prop-2-enylamine]
amount of myelin sheaths formed on electrospun poly-L-lactide scaffold microfibers (EpiSC-derived OPCs): significant increase in the amount of myelin sheaths
